Data as given in patent publication US4670584A, “Pharmaceutical composition having an excellent absorption property” (Ajinomoto Company Incorporated, priority 1986, dated 1987).
Residues, ends and D or L forms follow the SMILES beside them. *: point of attachment. Cbz = O=C(OCc1ccccc1)*

What was measured:
[1] = Oral insulin absorption in female ICR-CD-1 mice: percent decrease in blood glucose and degree of elevation of blood insulin; type: in vivo, mouse (Female ICR-CD-1 mice); conditions: vs control group
Protocol: The absorption promoter samples listed in Table 2 were dissolved or suspended in 0.5% CMC-0.05M tris-HCl buffers (pH: 7.8) and the solutions or suspensions were mixed with aqueous insulin solution. Female ICR-CD-1 mice 5 to 7 weeks old were orally administered predetermined amounts of the mixtures. A predetermined duration later, the percent decrease in blood glucose and the degree of elevation of blood insulin as compared with the control group were measured. The symbol "Z" in the structural formulas in the table represents a benzyloxycarbonyl group. The upper figures in the columns "effectiveness" represent the percent decrease in blood glucose and the lower parenthesized figures indicate the degree of elevation in blood insulin.

[2] = Usefulness as absorption promoter; conditions: statement in words, no data
[3] = Toxicity studies of phenylalanine derivatives, oral, in female CD-1(ICR) mice; conditions: mouse, in vivo, suspended in 0.5% CMC
Description: Toxicity Studies of Phenylalanine Derivatives with Oral IN Potentiating Activity in Female CD-1(ICR) Mice are as follows:
Phenylalanine derivatives were suspended in 0.5% CMC.

[4] = Degree of decrease in blood glucose after intraduodenal administration with insulin in rats; type: in vivo, rat (Male SD rats); conditions: male SD rats, 1.5 mg/10 body weight with insulin 1.25 U/10 g, mean
Protocol: Each (Administration: 1.5 mg/10 body weight) of the absorption promoters, phenylalanine derivatives as previously listed in the table was dissolved or suspended in 0.01M phosphate buffer (pH 7.5) and the solution or suspension was mixed with aqueous insulin (Administation: 1.25 U/10 g body weight) solution. Male SD rats, 6 weeks old, were intraduodenally administrated with predetermined amounts of the mixtures after being incised abdominally. The incised wounds were sutured quickly. A predetermined duration later, the percent decreases in blood glucose were determined. In the experiment, four rats a group were used, and the experiment was repeated 2 to 5 times. The mean values of the thus obtained data were described in the table.

[5] = sample 6.0 mg/10 g with insulin 2.5 U/10 g, 30 minutes
[6] = sample 6.0 mg/10 g with insulin 2.5 U/10 g, 60 minutes

SMILES | LD50 [3] | Decrease in Blood Glucose ([4]; 30 minutes) | Decrease in Blood Glucose ([4]; 60 minutes) | further results
O=C(NC(Cc1ccc(F)cc1)C(=O)N[C@@H](Cc1ccccc1)C(=O)O)OCc1ccccc1 (mixture of isomers) [Sample S-22, N-benzyloxycarbonyl-4-fluoro-DL-phenylalanyl-L-phenylalanine] | – | – | – | Decrease in Blood Glucose ([1]; sample 3.0 mg/10 g with insulin 2.5 U/10 g, 30 minutes): 63.1%
O=C(COc1ccc([N+](=O)[O-])cc1)NC(Cc1ccc([N+](=O)[O-])cc1)C(=O)O (racemic) [Sample S-2, N-[(4-nitrophenoxy)acetyl]-4-nitro-DL-phenylalanine] | – | – | – | Decrease in Blood Glucose [1, 5]: 23.2%
CC(=O)N[C@@H](Cc1ccccc1)C(=O)O [N-acetylphenylalanine] | – | – | – | usefulness as absorption promoter [2]: not useful as absorption promoters
N[C@@H](Cc1ccccc1)C(=O)O [Phenylalanine] | – | – | – | usefulness as absorption promoter [2]: not useful as absorption promoters
O=C(C=Cc1ccccc1)N[C@@H](Cc1ccccc1)C(=O)O [Sample S-3, N-cinnamoyl-L-phenylalanine] | > 2500 mg/kg | – | – | –
O=C(COc1ccccc1)N[C@@H](Cc1ccccc1)C(=O)O [Sample S-5, N-phenoxyacetyl-L-phenylalanine] | > 4000 mg/kg | – | – | –
O=C(N[C@@H](Cc1ccccc1)C(=O)N[C@@H](Cc1ccccc1)C(=O)O)OCc1ccccc1 [Sample S-7, N-benzyloxycarbonyl-L-phenylalanyl-L-phenylalanine] (Cbz-Phe-Phe-OH) | > 3000 mg/kg | – | – | –
O=C(CCCc1ccccc1)N[C@@H](Cc1ccccc1)C(=O)O [Sample S-8, N-(4-phenylbutyroyl)-L-phenylalanine] | – | – | – | Decrease in Blood Glucose [1, 5]: 57.1%; Decrease in Blood Glucose [1, 6]: 35.6%
O=C(N[C@@H](Cc1ccccc1)C(=O)N[C@@H](Cc1ccc(O)cc1)C(=O)O)OCc1ccccc1 [Sample S-10, N-benzyloxycarbonyl-L-phenylalanyl-L-tyrosine] (Cbz-Phe-Tyr-OH) | > 3000 mg/kg | – | – | –
O=C(COc1cccc2ccccc12)N[C@@H](Cc1ccccc1)C(=O)O [Sample S-11, N-[(1-naphthoxy)acetyl]-L-phenylalanine] | > 4000 mg/kg | – | – | –
O=C(COc1ccc2ccccc2c1)N[C@@H](Cc1ccccc1)C(=O)O [Sample S-12, N-[(2-naphthoxy)acetyl]-L-phenylalanine] | > 4000 mg/kg | – | – | –
O=C(COc1ccc(Cl)cc1)N[C@@H](Cc1ccccc1)C(=O)O [Sample S-13, N-[(4-chlorophenoxy)acetyl]-L-phenylalanine] | > 3500 mg/kg | – | – | –
O=C(N[C@@H](Cc1ccccc1)C(=O)O)OCc1ccccc1 [Sample S-15, N-benzyloxycarbonyl-L-phenylalanine] | > 2750 mg/kg | – | – | –
O=C(N[C@@H](Cc1ccc(O)cc1)C(=O)O)OCc1ccccc1 [Sample S-16, N-benzyloxycarbonyl-L-tyrosne] | – | – | – | Decrease in Blood Glucose [1, 6]: 27.2%
COc1ccc(COC(=O)N[C@@H](Cc2ccccc2)C(=O)O)cc1 [Sample S-17, N-(4-methoxybenzyloxycarbonyl)-L-phenylalanine] | 750 mg/kg | – | – | –
O=C(N[C@H](Cc1ccccc1)C(=O)O)OCc1ccccc1 [Sample S-18, N-benzyloxycarbonyl-D-phenylalanine] | > 4000 mg/kg | – | – | –
O=C(C=Cc1ccc2ccccc2c1)N[C@@H](Cc1ccccc1)C(=O)O [Sample S-37, N-(2-Naphthylacryloyl)-L-phenylalanine] | – | 55.3% | 40.2% | –
O=C(C=Cc1ccc2ccccc2c1)N[C@H](Cc1ccccc1)C(=O)O [Sample S-38, N-(2-Naphthylacryloyl)-D-phenylalanine] | – | 27.0% | 24.7% | –
CCc1ccc(C=CC(=O)N[C@@H](Cc2ccccc2)C(=O)O)cc1 [Sample S-39, N-(4-ethylcinnamoyl)-L-phenylalanine] | – | 56.0% | 32.5% | –
CCc1ccc(C=CC(=O)N[C@H](Cc2ccccc2)C(=O)O)cc1 [Sample S-40, N-(4-ethylcinnamoyl)-D-phenylalanine] | – | 33.9% | 28.1% | –
Cc1cccc(C=CC(=O)N[C@@H](Cc2ccccc2)C(=O)O)c1 [Sample S-41, N-(3-methylcinnamoyl)-L-phenylalanine] | – | 50.5% | 35.3% | –
Cc1cccc(C=CC(=O)N[C@H](Cc2ccccc2)C(=O)O)c1 [Sample S-42, N-(3-methylcinnamoyl)-D-phenylalanine] | – | 48.8% | 40.7% | –
O=C(C=Cc1cccc(Cl)c1)N[C@@H](Cc1ccccc1)C(=O)O [Sample S-43, N-(3-chlorocinnamoyl)-L-phenylalanine] | – | 50.9% | 46.9% | –
O=C(C=Cc1cccc(Cl)c1)N[C@H](Cc1ccccc1)C(=O)O [Sample S-44, N-(3-chlorocinnamoyl)-D-phenylalanine] | – | 55.0% | 49.3% | –
O=C(C=Cc1cccc2ccccc12)N[C@@H](Cc1ccccc1)C(=O)O [Sample S-45, N-(1-naphthylacryloyl)-L-phenylalanine] | – | 41.2% | 35.4% | –
O=C(C=Cc1cccc2ccccc12)N[C@H](Cc1ccccc1)C(=O)O [Sample S-46, N-(1-naphthylacryloyl)-D-phenylalanine] | – | 41.6% | 28.8% | –
Cc1ccc(C=CC(=O)N[C@H](Cc2ccccc2)C(=O)O)cc1 [Sample S-47, N-(4-methylcinnamoyl)-D-phenylalanine] | – | 52.3% | 41.0% | –
O=C(N[C@H](Cc1ccccc1)C(=O)O)C(F)=Cc1ccccc1 [Sample S-48, N-(α-fluorocinnamoyl)-D-phenylalanine] | – | 73.7% | 72.9% | –
O=C(N[C@@H](Cc1ccccc1)C(=O)O)C(Cl)=Cc1ccccc1 [Sample S-49, N-(α-Chlorocinnamoyl)-L-phenylalanine 1/2C2 H5 OH] | – | 63.2% | 49.1% | –
O=C(N[C@H](Cc1ccccc1)C(=O)O)C(Cl)=Cc1ccccc1 [Sample S-50, N-(α-Chlorocinnamoyl)-D-phenylalanine 1/2C2 H5 OH] | – | 79.0% | 74.9% | –
